Tests used:
[1] = test system: conscious dogs; assay: Dose escalation safety study, cardiovascular and respiratory parameters; conditions: acute intravenous, 3, 5 and 12 mg/kg
Procedure: To establish the safety of eszopiclone, a dose escalation study was carried out. Cardiovascular and respiratory parameters were evaluated in conscious dogs following acute intravenous administration of (R)-, (S)- or racemic zopiclone at three doses (3, 5 and 12 mg/kg).

[2] = test system: plasma proteins; conditions: cited from earlier work
[3] = test system: mice; assay: Antimuscarinic activity in vivo: oxotremorine induced salivation; conditions: doses up to 300 mg/kg, p.o.
Procedure: (§1) Eszopiclone was evaluated for antimuscarinic activity in vivo.

[4] = in vivo; cited from earlier work
[5] = test system: mice; assay: Antimuscarinic activity in vivo: mydriasis; conditions: any dose tested, maximum dose 100 mg/kg, p.o.
Procedure: as §1

[6] = test system: benzodiazepine receptor complex; conditions: cited from earlier work

For `CN1CCN(C(=O)OC2c3nccnc3C(=O)N2c2ccc(Cl)cn2)CC1` (racemic) [racemic zopiclone], the “cardiotoxicity, as evidenced by the electrocardiogram (ECG)” value [1] was “No evidence of cardiotoxicity”, the “effect on blood pressure” value [1] was “dose dependent, transient decreases in blood pressure” and the “effect on heart rate” value [1] was “compensatory increase in heart rate”. The “Blood gases and blood chemistries (pH, pCO2, pO2, hematocrit, and lactate)” value ([1]; all dose groups) was “remained unaffected”, the “binding to plasma proteins” value [2] was “not highly bound” and the “antagonism of oxotremorine induced salivation” value [3] was “neither (R)-, (S)-, nor racemic zopiclone significantly antagonized oxotremorine induced salivation”. For the same molecule, the “absorption from the stomach” value [4] was “well absorbed”, the mydriasis [5] was “did not produce mydriasis” and the “binding to the benzodiazepine receptor complex” value [6] was “binds to the benzodiazepine receptor complex, or to a site linked closely to this receptor complex”.

Source: US7465729B2, “Methods of treatment of menopause and perimenopause using eszopiclone” (Sepracor Inc., priority 2004, dated 2008)
